Experimental data reported in US20230346986A1, “METHODS AND AGENTS FOR THE DETECTION AND TREATMENT OF CANCER” (CASE WESTERN RESERVE UNIVERSITY, priority 2019, published 2023).
pIC50: −log10 of the molar value.

Target: T1, PSMA (Homo sapiens, UniProt Q04609)
T1 construct: endogenous in cells; host or cells: LNcap cells
Assay: Competition binding assay with 3H-ZJ24 on LNcap cells
Settings: 3H-ZJ24 12 nmol/L, 1 h at 37° C.
Method: […] used to test the binding affinity of NPs. Specifically, […] cultured in RPMI1640 medium, harvested, washed with 0.5 mM cold Tris buffer, and divided into 1.5 mL Eppendorf tubes at 5×10^5 cells per tube. […] All the tubes were then centrifuged and cells were washed three times with cold PBS. […] The concentration of ligands required to inhibit 50% of binding (IC50) was determined using GraphPad Prism 3.0.

T1 sequence (Q04609 whole entry): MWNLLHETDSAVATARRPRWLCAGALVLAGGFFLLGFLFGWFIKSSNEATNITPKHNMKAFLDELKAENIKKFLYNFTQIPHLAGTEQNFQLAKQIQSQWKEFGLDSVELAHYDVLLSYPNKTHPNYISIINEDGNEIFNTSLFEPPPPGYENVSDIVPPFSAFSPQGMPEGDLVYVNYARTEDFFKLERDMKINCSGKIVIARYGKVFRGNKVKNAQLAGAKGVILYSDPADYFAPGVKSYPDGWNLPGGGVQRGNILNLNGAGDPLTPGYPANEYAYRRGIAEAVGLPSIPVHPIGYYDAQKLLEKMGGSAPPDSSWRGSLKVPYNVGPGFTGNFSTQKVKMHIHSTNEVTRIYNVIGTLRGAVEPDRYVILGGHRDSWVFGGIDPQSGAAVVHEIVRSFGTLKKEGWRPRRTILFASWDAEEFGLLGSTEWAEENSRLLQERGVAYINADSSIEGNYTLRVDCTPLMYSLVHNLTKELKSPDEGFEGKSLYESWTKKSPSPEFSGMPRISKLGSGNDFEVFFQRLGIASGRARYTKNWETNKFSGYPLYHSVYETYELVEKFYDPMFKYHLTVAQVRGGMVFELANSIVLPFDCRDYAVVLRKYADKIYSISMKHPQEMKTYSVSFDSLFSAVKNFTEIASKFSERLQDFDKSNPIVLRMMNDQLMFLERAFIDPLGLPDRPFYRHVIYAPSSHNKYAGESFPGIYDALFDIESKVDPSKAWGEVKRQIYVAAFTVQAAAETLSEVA

pIC50: 8.01
Structure (SMILES): CSC[C@H](NC(=O)N[C@@H](CCC(=O)O)C(=O)O)C(=O)O [ZJ24]
